Assay results published in article PMC6107187, “A novel homodimer laccase from Cerrena unicolor BBP6: Purification, characterization, and potential in dye decolorization and denim bleaching” (PLoS ONE, 2018).
Like-named read-outs stand apart in the source and are kept apart here.

Tests used:
LacA [1] = test: oxidation monitored at […] nm, Lineweaver-Burk; type: biochemical, Cerrena unicolor; conditions: optimal pH 5.5 and temperature 80°C; 0.5–10 mM 2,6-DMP; apparent Km
LacA [2] = conditions: optimal pH 2.5 and temperature 60°C; 5–100 μM ABTS; apparent Km
LacA [3] = test: oxidation monitored at […] nm, Lineweaver-Burk; type: biochemical, Cerrena unicolor; conditions: optimal pH 4.0 and temperature 80°C; 0.5–5 mM guaiacol; apparent Km
[4] = target: Cerrena unicolor BBP6 laccase (LacA) (Cerrena unicolor BBP6); test: SEC; Superdex 200 Increase 10/300 GL, 10 mM phosphate buffer-140 mM NaCl (pH 7.4), 0.5 mL min^-1, room temperature; native mass compared with the subunit mass from SDS-PAGE

Compound `COc1cccc(OC)c1O` [2,6-DMP] has a Km (LacA [1]) of 3430 µM.

In the case of `CCn1c(=NN=c2sc3cc(S(=O)(=O)O)ccc3n2CC)sc2cc(S(=O)(=O)O)ccc21` [ABTS], the Km (LacA [2]) is reported as 49.1 µM.

`COc1ccccc1O` [guaiacol] was tested, and the Km (LacA [3]) was 1240 µM.

Work on “Cerrena unicolor BBP6 laccase (LacA) (enzyme)” yielded a stoichiometry N [4] of 2.
